US10973840B2, “Methods of sensitizing tumor cells to weak base chemotherapeutic drugs” (SOCPRA SCIENCES SANTÉ ET HUMAINES S.E.C., priority 2017, dated 2021)
Read-outs that look alike come from different tables or passages of the source.

Columns and labels:
[1] = tested on: MDA-MB-231 breast cancer cells; experiment: MTT cell viability assay, MDA-MB-231; type: cell-based, human; conditions: for IC50: Homo sapiens; for Fold change: MDA-MB-231, IC50 at 1% O2 to IC50 at 21% O2
Procedure: (§1) Cells (5×10^3) were cultured in 96-well plates and pre-incubated under 21% O2 or 1% O2 for 4 h following the addition of drugs for 72 h. Cell viability was measured using the 3-(4,5-dimethylthiazol-2-yl)-2,5-diphenyltetrazolium bromide (MTT) dye (Life Technologies) according to manufacturer's instructions. Because hypoxic conditions may affect the reduction of MTT to formazan, incubation of all cell cultures with MTT were performed under normoxic conditions. Each experiment was performed in triplicate and at least three independent experiments were performed. Log-scale dose-response data were plotted on a graph and a three-parameter non-linear regression was applied to determine IC50 values. For calculation of the IC50s, both normoxic and hypoxic drug-treated samples were normalized with their untreated counterpart.
(§2) To assess the role of pH in hypoxia-induced resistance to anthracyclines, the human breast cancer MDA-MB-231 and fibrosarcoma HT-1080 cell lines were incubated in the presence or absence of the commonly used anthracycline drugs, doxorubicin (Dox), daunorubicin (Dau) and the anthracycline analog drug, mitoxantrone (Mtx), under hypoxic (1% O2) or normoxic (21% O2) conditions for 72 hours. Cell viability was then assessed using the MTT assay. The impact of extracellular pH on Dox uptake by HT-1080 was also assessed.

[2] = tested on: HT-1080 fibrosarcoma cells; experiment: MTT cell viability assay, HT-1080; type: cell-based, human; conditions: for Fold change: HT-1080, IC50 at 1% O2 to IC50 at 21% O2; for IC50: Homo sapiens
Procedure: as §1, §2

[3] = tested on: NHE6 or NHE9 knockdown cells; experiment: MTT cell viability assay in NHE6 or NHE9 knockdown cells; type: cell-based, human; conditions: for IC50: Homo sapiens
Procedure: Lentiviruses and cell transduction pLKO.1-NHE6 and pLKO.1-NHE9 shRNA (Sigma-Aldrich) were co-transfected with ViraPower™ Lentiviral Packaging Mix (Invitrogen) into HEK293T cells according to manufacturer's instructions. Viruses were collected and concentrated by ultracentrifugation 72 h after transfection. HT-1080 and MDA-MB-231 cells were infected overnight with viruses and selected with puromycin (2 μg/ml) on the third day following transduction.
as §1

[4] = tested on: HT-1080 overexpressing NHE6^527-588 peptide; experiment: MTT cell viability assay in HT-1080 expressing NHE6^527-588 or scrambled peptide; type: cell-based, human; conditions: for IC50: Homo sapiens, read-out: IC50 of doxorubicin
Procedure: peGFP-N3-NHE6 was generously provided by Hiroshi Kanazawa (Osaka University, Japan). pcDNA3-HA/NHE6 was constructed from peGFP-N3-NHE6. For this, the entire NHE6 coding sequence was excised with BamHI and EcoRI restriction enzymes and cloned in pcDNA3-HA vector. pcDNA3-HA/NHE6^527-588 was designed from pcDNA3-HA/NHE6 using the following primers: […]
HT-1080 cells were stably transfected with Polyethylenimine (PEI, MirusBio) and positive cells were selected with Geneticin™ (G418) at 400 μg/mL. In the case of MDA-MB-231 cells, plasmids were transfected using Lipofectamine™ 2000 ([…]) and G418 was added to cell cultures at a concentration of 2 mg/mL.
as §1
The middle portion (position 527-588) of the NHE6 cytoplasmic tail has previously been reported to interact with RACK1^31. Stable HT-1080 cells expressing the NHE6^527-588 fragment or a scrambled counterpart were generated.

HT-1080 tumor xenografts = experiment: Chorioallantoic membrane (CAM) xenograft assay, HT-1080; type: in vivo, chick embryo; conditions: HT-1080 on CAM
Procedure: (§3) Fertilized eggs from white leghorn chicken were obtained from Public Health Agency of Canada (Nepean, ON). Ethics approval was obtained from the Ethics Committee on Animal Research of the University of Sherbrooke and all experimental procedures involving embryos were conducted in accordance with the regulations of the Canadian Council on Animal Care. Eggs were incubated in an Ova-Easy egg incubator (Brinsea) at 37° C. with 60% humidity. At Day 3, eggs were cracked as described^67. At Day 9, HT-1080 and MDA-MB-231 cell suspensions (1×10^6 and 2×10^6 cells, respectively) were mixed (1:1) with growth factor reduced Matrigel (BD Biosciences) in a total volume of 20 μl. Cell grafts were placed on top of the CAM and eggs were returned to the incubator for 96 h until Day 13 (n>6 chick embryos per cell line). When mentioned, 50 μl of Dox were added topically to the formed tumors (Day 13 after tumor cell grafting). At Day 16, chick embryos were euthanatized by decapitation. Tumors were removed and tumor volumes were calculated using the formula: (Dd^2/3). For RNA quantification, tumors were immediately snap-frozen in liquid nitrogen and kept at −80° C. until RNA extraction using the Trizol reagent.
(§4) To determine whether these observations were of relevance to tumor therapy in vivo, the inventors used an ex ovo chorioallantoic membrane (CAM) xenograft model in live chicken embryos^40. MDA-MB-231 or HT-1080 cells, or cells expressing either the NHE6^527-588 competing fragment or its scrambled counterpart were inoculated onto the CAM of 9-day-old chick embryos. After allowing 3 days for cells to engraft, tumors were treated with Doxorubicin or PBS. Four days later, chick embryos were euthanized, and tumors were removed for analysis (FIG. 10A). To first ascertain that tumors implanted in CAM developed hypoxia, total mRNA was extracted from tumors generated by untransfected HT-1080 cells and gene expression of the hypoxic markers CA9, GLUT1 and MCT4 was measured by qPCR. […]

[5] = tested on: MDA-MB-231 tumor xenografts; experiment: Chorioallantoic membrane (CAM) xenograft assay, MDA-MB-231; type: in vivo, chick embryo; conditions: MDA-MB-231 on CAM
Procedure: as §3, §4

[6] = Baf 100 nM or Cq 10 μM where combined

**Q.** `COc1cccc2c1C(=O)c1c(O)c3c(c(O)c1C2=O)C[C@@](O)(C(=O)CO)C[C@@H]3O[C@H]1C[C@H](N)[C@H](O)[C@H](C)O1` [Dox, doxorubicin] was tested. Which IC50 ([1]; MDA-MB-231, 72 h, MDA-MB-231, 1% O2, 72 h, read-out: IC50 of anthracyclines) did it give?
**A.** Its IC50 is 688 nM.

**Q.** What about the IC50 ([1]; MDA-MB-231, 72 h, MDA-MB-231, 21% O2, 72 h, read-out: IC50 of anthracyclines) of the same compound?
**A.** The IC50 was 125 nM.

**Q.** What about the IC50 ([1]; MDA-MB-231, MDA-MB-231, 1% O2, Baf 100 nM or Cq 10 μM where combined, read-out: IC50 of doxorubicin, cells treated with neutralizing agents) of the same compound?
**A.** The IC50 was 852 nM.

**Q.** And the IC50 ([1]; MDA-MB-231, MDA-MB-231, 21% O2, Baf 100 nM or Cq 10 μM where combined, read-out: IC50 of doxorubicin, cells treated with neutralizing agents)?
**A.** The IC50 was 168 nM.

**Q.** What about the Fold change [1] of the same compound?
**A.** The Fold change was 5.5 fold.

**Q.** And the Fold change [1, 6]?
**A.** Its Fold change is 5.1 fold.

**Q.** And the Fold change [2]?
**A.** The Fold change was 4.1 fold.

**Q.** And the Fold change [2, 6]?
**A.** Its Fold change is 4.0 fold.

**Q.** What about the “increase in resistance toward the drug by hypoxia” value ([2]; HT-1080 cells (so in the source), 1% O2 vs 21% O2) of the same compound?
**A.** The value was 5.5 fold.

**Q.** And the IC50 ([2]; HT-1080, 72 h, HT-1080, 1% O2, 72 h, read-out: IC50 of anthracyclines)?
**A.** The IC50 was 301 nM.

**Q.** And the IC50 ([2]; HT-1080, 72 h, HT-1080, 21% O2, 72 h, read-out: IC50 of anthracyclines)?
**A.** Its IC50 is 73.4 nM.

**Q.** What about the IC50 ([2]; HT-1080, HT-1080, 1% O2, Baf 100 nM or Cq 10 μM where combined, read-out: IC50 of doxorubicin, cells treated with neutralizing agents) of the same compound?
**A.** Its IC50 is 448 nM.

**Q.** What about the IC50 ([2]; HT-1080, HT-1080, 21% O2, Baf 100 nM or Cq 10 μM where combined, read-out: IC50 of doxorubicin, cells treated with neutralizing agents) of the same compound?
**A.** Its IC50 is 113 nM.

**Q.** What about the IC50 ([3]; scrambled shRNA, 1% O2) of the same compound?
**A.** The IC50 was 459 nM.

**Q.** What about the IC50 ([3]; scrambled shRNA, 21% O2) of the same compound?
**A.** The IC50 was 179 nM.

**Q.** And the IC50 ([3]; shRNA NHE6, 21% O2)?
**A.** Its IC50 is 421 nM.

**Q.** And the IC50 ([3]; shRNA NHE9, 21% O2)?
**A.** The IC50 was 202 nM.

**Q.** And the “increase in cell resistance to Dox” value ([3]; NHE6 knockdown, normoxic cells)?
**A.** The value was 2.4 fold.

**Q.** What about the “Fold (compared to scrambled 21% O2)” value ([3]; scrambled shRNA, 1% O2) of the same compound?
**A.** Its value is 2.5 fold.

**Q.** What about the “Fold (compared to scrambled 21% O2)” value ([3]; scrambled shRNA, 21% O2) of the same compound?
**A.** Its value is 1.0 fold.

**Q.** And the “Fold (compared to scrambled 21% O2)” value ([3]; shRNA NHE6, 21% O2)?
**A.** The value was 2.4 fold.

**Q.** And the “Fold (compared to scrambled 21% O2)” value ([3]; shRNA NHE9, 21% O2)?
**A.** The value was 1.1 fold.

**Q.** And the IC50 ([4]; HT-1080, HT-1080 expressing scrambled peptide (scr), 1% O2)?
**A.** The IC50 was 521 nM.

**Q.** What about the IC50 ([4]; HT-1080, HT-1080 expressing scrambled peptide (scr), 21% O2) of the same compound?
**A.** The IC50 was 117 nM.

**Q.** And the IC50 ([4]; HT-1080, HT-1080 overexpressing NHE6^527-588 peptide, 1% O2)?
**A.** Its IC50 is 224 nM.

**Q.** And the IC50 ([4]; HT-1080, HT-1080 overexpressing NHE6^527-588 peptide, 21% O2)?
**A.** The IC50 was 137 nM.

**Q.** And the Fold ([4]; NHE6^527-588, 1% O2 vs 21% O2)?
**A.** Its Fold is 1.6 fold.

**Q.** What about the Fold ([4]; scr, 1% O2 vs 21% O2) of the same compound?
**A.** The Fold was 4.4 fold.

**Q.** What about the tumor growth (HT-1080 tumor xenografts; 0.5 μM Dox) of the same compound?
**A.** The tumor growth was “unaffected”.

**Q.** And the tumor growth (HT-1080 tumor xenografts; 2 μM Dox topical)?
**A.** The tumor growth was “significantly reduced”.

**Q.** What about the tumor growth ([5]; 1 μM Dox) of the same compound?
**A.** The tumor growth was “unaffected”.

**Q.** What about the tumor growth ([5]; 5 μM Dox topical) of the same compound?
**A.** Its tumor growth is “significantly reduced”.
